From BindingDB's records for doi:10.1016/s0960-894x(02)00995-2 (The Oxford Centre For Molecular Sciences and The Dyson …, 2003)

Molecular target: T1, Chymotrypsin-like elastase family member 2A (Sus scrofa, UniProt P08419)
T1 sequence (P08419 whole entry): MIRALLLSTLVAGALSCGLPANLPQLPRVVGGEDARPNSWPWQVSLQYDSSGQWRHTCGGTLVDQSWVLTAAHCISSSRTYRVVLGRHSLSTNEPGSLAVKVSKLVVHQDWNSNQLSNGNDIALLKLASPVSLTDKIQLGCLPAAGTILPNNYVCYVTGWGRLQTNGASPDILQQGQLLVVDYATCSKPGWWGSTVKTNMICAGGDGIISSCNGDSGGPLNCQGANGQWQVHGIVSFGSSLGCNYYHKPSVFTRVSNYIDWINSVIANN
Assay: ChEBML_152310
Source text: Inhibitory concentration against porcine pancreatic elastase (PPE)

Row | IC50 | Compound
1 | 293 µM | CCC(C)[C@H]1C(=O)N(S(=O)(=O)c2ccc(C)cc2)CCN1C(=O)OC(C)(C)C (stereo partly drawn) [(S)-2-sec-Butyl-3-oxo-4-(toluene-4-sulfonyl)-piperazine-1-carboxylic acid tert-butyl ester]
2 | 62 µM | Cc1ccc(S(=O)(=O)N2CCN(Cc3ccccc3)C(=O)[C@@H]2CC(C)C)cc1 [(S)-1-Benzyl-3-isobutyl-4-(toluene-4-sulfonyl)-piperazin-2-one]
3 | 923 µM | CC(C)C[C@H]1C(=O)N(S(C)(=O)=O)CCN1C(=O)OC(C)(C)C [(S)-2-Isobutyl-4-methanesulfonyl-3-oxo-piperazine-1-carboxylic acid tert-butyl ester]
4 | 2000 µM | CC(C)C[C@H]1C(=O)N(Cc2ccccc2)CCN1S(C)(=O)=O [(S)-1-Benzyl-3-isobutyl-4-methanesulfonyl-piperazin-2-one]
